Data on three compounds can be found in US8217042B2, “Pyridopyrazines and their use as modulators of kinases” (Zentaris GmbH, priority 2005, dated 2012).

The test system of one series is Hct116. The series can be described thus: XTT assay, anti-proliferative action, Hct116. The settings on record: Homo sapiens, HCT-116, 45 h, Hct116 cells, 45 h incubation. It is filed as cell-based. As to the method:
(§1) The principle of this test is based on the intracellular reduction of the tetrazolium dye XTT (sodium 3′-[1-(phenylaminocarbonyl)-3,4-tetrazolium]bis(4-methoxy-6-nitro)benzenenesulphonic acid, Sigma) to a formazan dye by mitochondrial dehydrogenases.
(§2) The dye is formed only by metabolically active cells; its photometrically measurable intensity is a quantitative indicator for the presence of living cells. The reduction in the dye formation as a result of incubation of the cells with substances serves as a parameter for the anti-proliferative action.
(§3) The tumour cell lines (ATCC) were seeded in 96-well microtitre plates in a defined cell count (5000 cells/well for BxPC3 and Hct116; 10 000 cells/well for MDA MB468), and then incubated overnight in an incubator at 37° C., 5% CO2 and 95% air humidity. The test substances were made up as stock solutions (10 mM) in DMSO. […] The cell plates were then incubated for 45 h in an incubator at 37° C., 5% CO2 and 95% air humidity.
(§4) For the detection reaction, the XTT substrate was admixed with PMS (N-methyldibenzopyrazine methylsulphate, Sigma) and added to the cells, so as to result in a final concentration of 325 μg of XTT/ml and 2.5 μg PMS/ml. The mixture was then incubated for 3 h at 37° C., 95% air humidity. Subsequently the formazan salt formed by cellular dehydrogenases was quantified at an absorption of 490 nm.
(§5) The evaluation of the % inhibition values was done by means of the following formula from the values for the optical densities measured in each case at 490 nm:
(§6) The controls were determined 8 times each, the substance samples twice each. 0% control contained no cells; the 100% control contained no test substance. The EC50 values were determined with GraphPadPrism.
(In general: Formazan colour is commonly taken as a measure of viable cells.)

The next series relates to Erk →pRsk. The series can be described thus: Cellular substrate phosphorylation (Western blotting), Erk substrate Rsk1. It is filed as cell-based. The settings on record: 5 h, tumour cell line. The procedure:
(§7) This method enables a statement of whether the kinase modulator investigated achieves the desired effect in a cellular context too, i.e., in this case, a substrate protein downstream of the target kinase is examined for its phosphorylation status. To this end, the cells incubated with substance are lysed and the overall protein is separated on a reducing polyacrylamide gel. Subsequently, the proteins are transferred by means of Western blotting to a PVDF membrane and the substrate bands sought are made visible with specific antibodies and a suitable detection method. The substrate proteins downstream of the target kinases are detected simultaneously with an anti-phospho antibody which is specific in each case and simultaneously a total antibody which recognizes the substrate total protein. The duplex technology of the ODYSSEY imager (LiCOR) enables this simultaneous measurement. The intensity of the total substrate bands is employed to normalize and quantify the phosphorylation inhibition or activation.
(§8) Suitable tumour cell lines (e.g. BxPC3, Hct116 or MDA MB468) were seeded into 6-well microtitre plates in a defined cell count (e.g. 350 000 cells/well for BxPC3 and Hct116) in the particular standard complete media and then incubated overnight in an incubator at 37° C., 5% CO2 and 95% air humidity. The cells were then incubated further for a further 24 h under reduced-serum conditions, i.e. in the particular medium except at only 0.25% serum. The test substances were made up as stock solutions (10 mM) in DMSO and incubated with the cells at final concentrations of 5, 15.8 and 50 μM for 5 h. This was followed by cell lysis in 25 mM Tris, 150 mM NaCl, 10 mM sodium pyrophosphate, 2 mM EGTA, 25 mM beta-glycerophosphate, 25 mM NaF, 10% glycerol, 0.75% NP-40, 100 μM NaVO4 buffer. After protein quantification by means of BCA (bicinchonic acid protein assay kit, Sigma) assay, amounts of protein of about 20 μg per track were separated on a Lammli polyacrylamide gel and then transferred onto a PVDF membrane (Millipore) by means of semi-dry Western blotting at 0.8 mA/cm^2 for 1 h. This was followed by prehybridization of the membrane for 1 hour in I-block reagent (Applied Biosystems) and overnight incubation with the specific antibodies. To determine the Erk and PI3K inhibition, the next substrates Rsk1 downstream were detected with the total antibody (Rsk #sc-231g C-21, Santa Cruz) and the phospho antibody (Phospho-p90RSK (S380) #9341, NEB Cell Signalling) and Akt with the total antibody (Akt1 #sc-20, Santa Cruz) and the phospho antibody (Phospho-Akt (Ser 473) #9271, NEB Cell Signaling). After the membrane had been washed, the secondary antibodies were incubated with anti-rabbit IR Dye 800 (#611-732-127, Rockland) for the phospho antibody and anti-goat Alexa Fluor 680 (#A-21081, […]) for the total protein antibody. After incubation for 30 min at room temperature in the dark, the hybridization of the detection antibody was detected on the membrane by scanning in an ODYSSEY imager (LiCOR).
(In western blotting, separated proteins are transferred to a membrane and probed.)

The next series has as its system MDA-MB468. The series can be described thus: XTT assay, anti-proliferative action, MDA-MB468. To be noted: Homo sapiens, MDA-MB-468, 45 h, MDA-MB468 cells, 45 h incubation. It is filed as cell-based. As to the method:
as §1, §2, §3, §4, §5, §6

A further series concerns BxPC3. The series can be described thus: XTT assay, anti-proliferative action, BxPC3. It is filed as cell-based. The settings on record: Homo sapiens, BXPC-3, 45 h, BxPC3 cells, 45 h incubation. As to the method: as §1, §2, §3, §4, §5, §6
The next series concerns PI3K →pAkt. The series can be described thus: Cellular substrate phosphorylation (Western blotting), PI3K substrate Akt. To be noted: 5 h, tumour cell line. It is filed as cell-based. The procedure:
as §7, §8

In the next series the test system is Jnk1 + Jnk2. The series can be described thus: Cell-free kinase assay (ALPHA technology), Jnk1 + Jnk2. It is filed as biochemical. To be noted: at 10 μM or 100 μM* ATP, recombinant human kinases. As to the method: The inhibitory effect of the inventive compounds was tested on various human serine/threonine kinases, tyrosine kinases and lipid kinases in enzymatic assays. Recombinant human kinases, for example Erk2, PI3Kalpha, -beta, -gamma, -delta, p38alpha, p38gamma, Jnk1, Jnk2 and others were used, in some cases as full-length kinases, in some cases as truncated fragments—but at least consisting of the functional kinase domains. The commercial kinase proteins (Proqinase, Upstate) were used as recombinant fusion proteins with GST (glutathione S-transferase) tag or His tag. Depending on the substrate type, the different kinase reactions were quantified by means of suitable ALPHA™ beads (PerkinElmer). […]
(§9) The fluorescence was detected the next morning in a Fusion™ alpha instrument (Perkin Elmer).
(§10) The calculation of % inhibition values per substance concentration was done by means of the following formula from the raw data determined in the Fusion™ alpha:
(§11) The controls were each determined 8 times, the substance samples each twice. 0% control contained neither any ATP nor any substrate; the 100% control contained no test substance. The IC50 values were determined with GraphPadPrism.

The next series deals with T1, Erk2.
T1 construct: in some cases as full-length kinases, in some cases as truncated fragments; purchased Upstate 14-173
The series can be described thus: Cell-free kinase assay (ALPHA technology), Erk2-ALPHA. In kind it is biochemical. The settings on record: 10 μM ATP, recombinant human kinase. The procedure: (§12) The inhibitory effect of the inventive compounds was tested on various human serine/threonine kinases, tyrosine kinases and lipid kinases in enzymatic assays. Recombinant human kinases, for example Erk2, PI3Kalpha, -beta, -gamma, -delta, p38alpha, p38gamma, Jnk1, Jnk2 and others were used, in some cases as full-length kinases, in some cases as truncated fragments—but at least consisting of the functional kinase domains. The commercial kinase proteins (Proqinase, Upstate) were used as recombinant fusion proteins with GST (glutathione S-transferase) tag or His tag. Depending on the substrate type, the different kinase reactions were quantified by means of suitable ALPHA™ beads (PerkinElmer).
(§13) The substrate testing on the Erk assay is described in detail below. Selected test results of the Erk2, PI3Kalpha assays are cited below. […] The kinase reaction was then stopped by adding 10 μl of the ALPHA bead mix (10 μg/ml, #6760617/PerkinElmer), pre-incubated with anti-phospho MBP antibody (320 μM, #05-429/Upstate), in 25 mM Tris, 200 mM NaCl, 100 mM EDTA and 0.3% BSA, and left to stand overnight. • b) PI3K-ALPHAs (e.g. PI3Kalpha): The test substance, 1 ng of PI3Kalpha (#14-602, Upstate), 100 μM ATP and 20 μM PIP2 substrate (#P4508, Echelon) on a 384-well Optiplate (Perkin Elmer) for 1 h in 50 mM Hepes, 50 mM NaCl, 5 mM MgCl2, 0.05% Chaps, 5 mM DTT at pH 7.4. Subsequently, the kinase reaction was stopped by adding the ALPHA bead mix (10 μg/ml, #6760603/PerkinElmer), preincubated with 1 nM GST:Grp1 fusion protein (Upstate) and 15 nM biotinylated PIP3 (#C-39B6/Echelon) in 50 mM Hepes, 50 mM NaCl, 50 mM EDTA and 0.1% BSA, and left to stand overnight.
as §9, §10, §11

A further series deals with T2, PI3Kalpha (Homo sapiens, UniProt P42336).
T2 construct: in some cases as full-length kinases, in some cases as truncated fragments; purchased Upstate 14-602
The series can be described thus: Cell-free kinase assay (ALPHA technology), PI3K-ALPHA. In kind it is biochemical. The settings on record: 100 μM ATP, recombinant human kinase. The procedure: as §12, §13, §9, §10, §11

The pEC50 is the negative decadic logarithm of the EC50, by convention in mol/L. A higher pEC50 goes with a small EC50. As a reminder, the inhibition is the change of the read-out against control, counted positive when it falls. The low end stands for little suppression, the high end for strong suppression. Usually melting point stands for the temperature of the solid-liquid transition. A word on the pIC50: it is −log10 of the IC50, conventionally taken in molar units.

pEC50, pIC50: −log10 of the molar value.

T1 sequence (P63085 whole entry, the tested form may be a part): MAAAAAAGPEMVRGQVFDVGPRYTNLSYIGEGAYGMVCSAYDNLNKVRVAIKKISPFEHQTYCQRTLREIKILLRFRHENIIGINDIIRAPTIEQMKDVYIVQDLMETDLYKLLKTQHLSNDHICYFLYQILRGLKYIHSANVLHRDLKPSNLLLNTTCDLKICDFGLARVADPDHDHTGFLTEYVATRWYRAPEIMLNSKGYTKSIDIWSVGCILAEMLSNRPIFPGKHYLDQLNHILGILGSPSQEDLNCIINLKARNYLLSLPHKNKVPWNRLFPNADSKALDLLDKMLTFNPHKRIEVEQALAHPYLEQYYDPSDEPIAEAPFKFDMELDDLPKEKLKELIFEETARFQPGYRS
T2 sequence (P42336 whole entry, the tested form may be a part): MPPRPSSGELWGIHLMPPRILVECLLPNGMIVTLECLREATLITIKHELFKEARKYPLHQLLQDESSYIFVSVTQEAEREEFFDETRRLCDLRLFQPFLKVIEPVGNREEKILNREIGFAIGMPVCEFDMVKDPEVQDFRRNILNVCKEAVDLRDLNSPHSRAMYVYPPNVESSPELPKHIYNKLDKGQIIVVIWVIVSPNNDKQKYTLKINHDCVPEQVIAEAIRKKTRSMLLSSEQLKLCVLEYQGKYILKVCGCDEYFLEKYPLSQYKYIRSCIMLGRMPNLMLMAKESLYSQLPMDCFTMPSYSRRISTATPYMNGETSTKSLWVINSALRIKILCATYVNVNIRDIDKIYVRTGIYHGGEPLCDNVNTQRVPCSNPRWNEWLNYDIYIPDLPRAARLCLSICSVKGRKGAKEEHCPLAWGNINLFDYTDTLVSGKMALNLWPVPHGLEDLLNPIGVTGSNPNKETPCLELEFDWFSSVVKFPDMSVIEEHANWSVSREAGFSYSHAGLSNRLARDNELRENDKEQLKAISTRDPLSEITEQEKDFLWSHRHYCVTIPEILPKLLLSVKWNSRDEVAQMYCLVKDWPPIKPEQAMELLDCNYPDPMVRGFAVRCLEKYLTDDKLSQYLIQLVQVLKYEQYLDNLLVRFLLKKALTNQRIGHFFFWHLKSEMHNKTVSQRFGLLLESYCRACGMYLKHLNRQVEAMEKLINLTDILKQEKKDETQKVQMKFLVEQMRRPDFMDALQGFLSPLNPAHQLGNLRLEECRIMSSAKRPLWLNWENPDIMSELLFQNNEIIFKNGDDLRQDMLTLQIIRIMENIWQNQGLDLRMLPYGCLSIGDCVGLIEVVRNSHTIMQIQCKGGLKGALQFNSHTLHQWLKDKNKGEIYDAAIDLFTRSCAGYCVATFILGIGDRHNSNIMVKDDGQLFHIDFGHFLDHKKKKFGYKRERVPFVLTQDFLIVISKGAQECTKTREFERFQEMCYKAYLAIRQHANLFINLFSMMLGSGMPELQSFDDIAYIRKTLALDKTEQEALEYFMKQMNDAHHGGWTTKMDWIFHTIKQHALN
T2 sequence (P27986 whole entry partner, the tested form may be a part): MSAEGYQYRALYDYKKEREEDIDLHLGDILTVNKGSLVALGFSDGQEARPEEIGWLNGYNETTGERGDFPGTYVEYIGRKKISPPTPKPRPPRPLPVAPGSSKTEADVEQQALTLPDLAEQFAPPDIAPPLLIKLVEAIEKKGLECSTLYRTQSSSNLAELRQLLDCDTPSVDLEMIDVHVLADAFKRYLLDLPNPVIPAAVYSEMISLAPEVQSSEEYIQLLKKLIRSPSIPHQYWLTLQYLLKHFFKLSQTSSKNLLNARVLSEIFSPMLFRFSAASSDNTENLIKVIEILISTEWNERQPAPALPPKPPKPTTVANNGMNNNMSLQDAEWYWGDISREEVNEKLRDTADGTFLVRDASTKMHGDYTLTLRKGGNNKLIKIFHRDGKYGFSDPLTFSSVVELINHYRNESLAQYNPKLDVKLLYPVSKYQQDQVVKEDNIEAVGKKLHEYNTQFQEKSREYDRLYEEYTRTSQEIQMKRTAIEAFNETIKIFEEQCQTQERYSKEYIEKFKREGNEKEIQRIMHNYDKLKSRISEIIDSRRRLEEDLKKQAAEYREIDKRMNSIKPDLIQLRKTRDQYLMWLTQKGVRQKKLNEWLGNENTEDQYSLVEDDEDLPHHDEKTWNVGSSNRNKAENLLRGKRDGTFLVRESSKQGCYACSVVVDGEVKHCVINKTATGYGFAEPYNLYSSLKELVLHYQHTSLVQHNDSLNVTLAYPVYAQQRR

Consider `CCNC(=O)Nc1ccc(-c2cnc3ccc(NC(=O)NCC)nc3n2)cc1` [Compound 23, 1-Ethyl-3-{3-[4-(3-ethylurea)phenyl]pyrido[2,3-b]pyrazin-6-yl}urea], for which the melting point is > 350 °C (dec.). The negative logarithm of the EC50 (pEC50) in the series with Hct116 is 4.80. The compound further yielded an inhibition at 50 µM in the series on Erk →pRsk of 0%. The compound also gave a negative logarithm of the EC50 (pEC50) in the series with MDA-MB468 of less than 4.60. The compound also showed a negative logarithm of the EC50 (pEC50) in the series on BxPC3 of less than 4.30. Also, the inhibition at 50 µM in the series on PI3K →pAkt came to 70%. For the same compound, the negative-log IC50 (pIC50) in the series on Jnk1 + Jnk2 is 5.24. Further, on Erk2, the pIC50 was 5.72. Besides, the pIC50 on PI3Kalpha was 5.89.

Turning to `CCNC(=O)Nc1ccc2ncc(-c3ccc(OC(=O)OCCOC)c(OC)c3)nc2n1` [Compound 32, 4-[6-(3-Ethylurea)pyrido[2,3-b]pyrazin-3-yl]-2-methoxyphenyl 2-methoxyethyl carbonate], the pEC50 with Hct116 is 5.66; in the series on MDA-MB468 it was 5.35; in the series on BxPC3 it was 5.23. Moreover, the inhibition at 50 µM with Erk →pRsk is 100%; in the series with PI3K →pAkt, 90%. The pIC50 is 5.38 with Jnk1 + Jnk2, 6.08 at Erk2 and 5.89 at PI3Kalpha.

In the case of `CCNC(=O)Nc1ccc2ncc(-c3ccc(OC(=O)OC)cc3)nc2n1` [Compound 9, 4-[6-(3-Ethylurea)pyrido[2,3-b]pyrazin-3-yl]phenyl methyl carbonate], the melting point fell in the range of 243 to 245 °C. This compound also displayed an inhibition at 50 µM with Erk →pRsk of 90%. In addition, testing at 50 µM with PI3K →pAkt gave an inhibition of 50%. Also, in the series on Jnk1 + Jnk2, the negative-log IC50 (pIC50) was less than 4.00.
